Source: US10508104B2, “6-hydroxy-5-(phenyl/heteroarylsulfonyl)pyrimidin-4(1H)-one as APJ agonists” (Bristol-Myers Squibb Company, priority 2016, dated 2019)
pEC50: −log10 of the molar value.

These molecules were tested against human APJ receptor (Homo sapiens (Human), UniProt P35414) (assay: Intracellular cAMP accumulation assay (APJ hcAMP, HTRF)). Conditions: HEK293 cells stably expressing human APJ receptor; inhibition of forskolin-mediated cAMP production; read-out: Human APJ cAMP EC50 Potency range.
Chain of human APJ receptor (P35414 whole entry): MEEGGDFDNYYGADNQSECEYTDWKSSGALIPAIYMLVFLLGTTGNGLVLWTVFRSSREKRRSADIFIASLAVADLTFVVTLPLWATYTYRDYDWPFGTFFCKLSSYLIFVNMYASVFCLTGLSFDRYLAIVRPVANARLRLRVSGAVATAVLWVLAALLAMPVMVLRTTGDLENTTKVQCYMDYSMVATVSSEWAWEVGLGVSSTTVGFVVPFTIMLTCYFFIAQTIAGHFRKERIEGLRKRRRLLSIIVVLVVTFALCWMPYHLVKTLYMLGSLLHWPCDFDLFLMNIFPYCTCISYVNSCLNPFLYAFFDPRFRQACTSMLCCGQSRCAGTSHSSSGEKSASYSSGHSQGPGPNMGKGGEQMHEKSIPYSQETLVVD
Assay type: cell-based
Method in brief: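 HEK293 cells stably expressing human APJ, 5,000 per well, incubated 30 min at rt with compound, […] and 2 μM forskolin. cAMP measured by HTRF against a cAMP standard curve as inhibition of forskolin-driven production. EC50 from variable-slope sigmoidal fit.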
For `CCOCc1nc(=O)c(S(=O)(=O)c2ccc(-c3ccnc(F)c3C)cc2)c(O)n1[C@@H](COC)c1cc(F)cc(F)c1` [Example 388, 1-[(1R)-1-(3,5-difluorophenyl)-2-methoxyethyl]-2-(ethoxymethyl)-5-[4-(2-fluoro-3-methylpyridin-4-yl)benzenesulfonyl]-6-hydroxy-1,4-dihydropyrimidin-4-one], the pEC50 was 8.00 to 11.00.
`COC[C@@H](c1cc(F)cc(F)c1)n1c(COC(C)C)nc(=O)c(S(=O)(=O)c2ccc(-c3cccn(C)c3=O)cc2)c1O` [Example 408, 1-[(1R)-1-(3,5-difluorophenyl)-2-methoxyethyl]-6-hydroxy-5-[4-(1-methyl-2-oxo-1,2-dihydropyridin-3-yl)benzenesulfonyl]-2-[(propan-2-yloxy)methyl]-1,4-dihydropyrimidin-4-one] showed a pEC50 of 8.00 to 11.00.
`CC[C@@H](c1cccc(C#N)c1)n1c(COC(C)C)nc(=O)c(S(=O)(=O)c2ccc(-c3cnccc3C#N)cc2)c1O` [Example 410, 3-[4-({1-[(1S)-1-(3-cyanophenyl)propyl]-6-hydroxy-4-oxo-2-[(propan-2-yloxy)methyl]-1,4-dihydropyrimidin-5-yl}sulfonyl)phenyl]pyridine-4-carbonitrile] gave a pEC50 of 8.00 to 11.00.
For `CC[C@@H](c1cccc(C#N)c1)n1c(COC(C)C)nc(=O)c(S(=O)(=O)c2ccc(-c3ccccc3C(N)=O)cc2)c1O` [Example 400, 4′-({1-[(1S)-1-(3-cyanophenyl)propyl]-6-hydroxy-4-oxo-2-[(propan-2-yloxy)methyl]-1,4-dihydropyrimidin-5-yl}sulfonyl)-[1,1′-biphenyl]-2-carboxamide], the pEC50 was 8.00 to 11.00.
For `COC[C@@H](c1ccccc1)n1c(COC(C)C)nc(=O)c(S(=O)(=O)c2ccc(-c3cnccc3C#N)cc2)c1O` [Example 413, 3-[4-({6-hydroxy-1-[(1R)-2-methoxy-1-phenylethyl]-4-oxo-2-[(propan-2-yloxy)methyl]-1,4-dihydropyrimidin-5-yl}sulfonyl)phenyl] pyridine-4-carbonitrile], the pEC50 was 8.00 to 11.00.
`C/C=C(/c1cccc(C#N)c1)n1c(CCCC)nc(=O)c(S(=O)(=O)c2ccc(-c3ccnc(F)c3C)cc2)c1O` [Example 483, 3-[(1Z)-1-{2-butyl-5-[4-(2-fluoro-3-methylpyridin-4-yl)benzenesulfonyl]-6-hydroxy-4-oxo-1,4-dihydropyrimidin-1-yl}prop-1-en-1-yl]benzonitrile] was tested, and the pEC50 was 8.00 to 11.00.
Molecule `CCOCc1nc(=O)c(S(=O)(=O)c2ccc(-c3ccncc3C)cc2)c(O)n1[C@@H](CC)c1cccc(C#N)c1` [Example 434, 3-[(1S)-1-[2-(ethoxymethyl)-6-hydroxy-5-[4-(3-methylpyridin-4-yl)benzenesulfonyl]-4-oxo-1,4-dihydropyrimidin-1-yl]propyl]benzonitrile] has a pEC50 of 8.00 to 11.00.

Same assay, conditions: human APJ, cAMP accumulation; read-out: Human APJ cAMP EC50 Potency range
`CCCCCc1nc(=O)c(S(=O)(=O)c2ccc(-c3ccncc3C)cc2)c(O)n1[C@@H](COC)c1ccccc1` [Example 245, 6-hydroxy-1-[(1R)-2-methoxy-1-phenylethyl]-5-[4-(3-methylpyridin-4-yl)benzenesulfonyl]-2-pentyl-1,4-dihydropyrimidin-4-one] gave a pEC50 of 8.00 to 11.00.

Same assay, conditions: human APJ, intracellular cAMP accumulation; read-out: Human APJ cAMP EC50 Potency range
`CCCCc1nc(=O)c(S(=O)(=O)c2ccc(-c3cncc(C)c3)cc2)c(O)n1[C@H]1CCc2ccccc21` [Example 160, 2-butyl-1-[(1S)-2,3-dihydro-1H-inden-1-yl]-6-hydroxy-5-[4-(5-methylpyridin-3-yl)benzenesulfonyl]-1,4-dihydropyrimidin-4-one] was tested, and the pEC50 was 6.52 to 7.00.
Work on `CCCCc1nc(=O)c(S(=O)(=O)c2ccc(-c3cncc(C)c3)cc2)c(O)n1[C@@H](COC)c1ccccc1` [Example 151, 2-butyl-6-hydroxy-1-[(1R)-2-methoxy-1-phenylethyl]-5-[4-(5-methylpyridin-3-yl)benzenesulfonyl]-1,4-dihydropyrimidin-4-one] yielded a pEC50 of 8.00 to 11.00.
In the case of `CCCCc1nc(=O)c(S(=O)(=O)c2ccc(Br)cc2)c(O)n1[C@H](CC)c1ccccc1` [Example 126, 5-(4-bromobenzenesulfonyl)-2-butyl-6-hydroxy-1-[(1R)-1-phenylpropyl]-1,4-dihydropyrimidin-4-one], the pEC50 was 7.00 to 8.00.
